According to the RepoRT retention time repository (doi:10.1021/acs.analchem.1c00972):

How the values were obtained:
[1] = RP, Waters ACQUITY UPLC BEH C18, 100 × 1 mm, 1.7 µm, 50 °C, 0.3 mL/min, estimated dead time 0.17 min; A: water + 10 mM ammonium bicarbonate; B: 10% water + 90% methanol + 10 mM ammonium bicarbonate; gradient (min/%B) 0/0 15/100 21/100 22/0 30/0; details: stereoisomer not certain
[2] = RP, Waters ACQUITY UPLC BEH C18, 100 × 1 mm, 1.7 µm, 50 °C, 0.3 mL/min, estimated dead time 0.17 min; A: water + 0.1% formic acid + 20 mM ammonium formate; B: methanol + 0.1% formic acid + 20 mM ammonium formate; gradient (min/%B) 0/0 15/100 21/100 22/0 30/0; details: stereoisomer not certain

Compound	LC retention time [1] [min]	LC retention time [2] [min]
Cc1cc(C(C)(C)c2ccc(O)c(C)c2)ccc1O [Bisphenol C]	13.9	–
CC(C)(c1ccc(O)c(-c2ccccc2)c1)c1ccc(O)c(-c2ccccc2)c1 [Bisphenol PH]	17.1	–
CNC(=O)ON=C(C)C(C)S(C)(=O)=O (stereo unspecified) [Butoxycarboxim]	9.41	–
CCCCOC(=O)C=Cc1ccccc1 [Butyl cinnamate]	14	–
Cn1c(=O)c2c(ncn2C)n(C)c1=O [Caffeine]	7.78	–
NC(=O)N1c2ccccc2C=Cc2ccccc21 [Carbamazepin]	12.6	–
CCCC(C)(COC(N)=O)COC(=O)NC(C)C (stereo unspecified) [Carisoprodol]	13.3	–
CC(N)C(O)c1ccccc1 (stereo unspecified) [Cathine]	8.36	–
CC1=C(C(=O)O)N2C(=O)C(NC(=O)C(N)c3ccccc3)C2SC1 (stereo unspecified) [Cefalexin]	7.52	–
C=CC1=C(C(=O)O)N2C(=O)C(NC(=O)C(=NOCC(=O)O)c3csc(N)n3)C2SC1 (stereo unspecified) [Cefixim]	5.67	–
CCN1CCN(C(=O)NC(C(=O)NC2C(=O)N3C(C(=O)O)=C(CSc4nnnn4C)CSC23)c2ccc(O)cc2)C(=O)C1=O (stereo unspecified) [Cefoperazone]	8.34	–
c1ccc2ncccc2c1 [Chinolin]	11.4	–
NS(=O)(=O)c1cc(C2(O)NC(=O)c3ccccc32)ccc1Cl (stereo unspecified) [Chlorthalidon]	9.67	–
CN(C)CCCC1(c2ccc(F)cc2)OCc2cc(C#N)ccc21 (stereo unspecified) [Citalopram]	14.8	–
CC1(C)CON(Cc2ccccc2Cl)C1=O [Clomazone]	13.9	–
CCOP(=S)(OCC)Oc1ccc2c(C)c(Cl)c(=O)oc2c1 [Coumaphos]	15.9	–
CCN(CC)C(=O)c1cccc(C)c1 [DEET]	13.4	–
CC(C)Nc1nc(N)nc(Cl)n1 [Desethylatrazine]	9.95	–
CCC(C)Nc1nc(N)nc(Cl)n1 (stereo unspecified) [Desethylsebutylazin]	11.5	–
CCNc1nc(N)nc(Cl)n1 [Desisopropylatrazine]	8.17	–
CC(=O)OCC12CCC(C)=CC1OC1C(O)C(OC(C)=O)C2(C)C12CO2 (stereo unspecified) [Diacetoxyscirpenol]	12.1	–
CN1C(=O)CN=C(c2ccccc2)c2cc(Cl)ccc21 [Diazepam]	14.6	–
COP(=O)(OC)OC(C)=CC(=O)N(C)C [Dicrotophos]	8.69	–

Compound	LC retention time [1] [min]	LC retention time [2] [min]
COCC(C)N(C(=O)CCl)c1c(C)csc1C (stereo unspecified) [Dimethenamid]	14.4	–
CC(C)(C)C(O)C(=Cc1ccc(Cl)cc1Cl)n1cncn1 (stereo unspecified) [Diniconazole]	16.5	–
CC=C1N(C)C(C)CC1(c1ccccc1)c1ccccc1 (stereo unspecified) [EDDP]	17.4	–
CNC(C)C(O)c1ccccc1 (stereo unspecified) [Ephedrine]	13.1	–
CNCC(O)c1ccc(O)c(O)c1 (stereo unspecified) [Epinephrine]	13.9	–
CC12CCC3c4ccc(O)cc4CCC3C1CC(O)C2O (stereo unspecified) [Estriol]	11.4	–
CC12CCC3c4ccc(O)cc4CCC3C1CCC2=O (stereo unspecified) [Estrone]	14.2	–
CCC(CO)NCCNC(CC)CO (stereo unspecified) [Ethambutol]	8.12	–
CCOP(=S)(OCC)SCSP(=S)(OCC)OCC [Ethion]	17.3	–
CCOP(=S)(OCC)SCn1nnc2ccccc2c1=O [Ethyl azinphos]	15	–
c1ccc(OCCOc2ccccc2)cc1 [Ethylene glycol diphenylether]	13.5	–
CC1(c2ccc(Oc3ccccc3)cc2)OC(=O)N(Nc2ccccc2)C1=O (stereo unspecified) [Famoxadone]	16.1	–
N#CC(CCc1ccc(Cl)cc1)(Cn1cncn1)c1ccccc1 (stereo unspecified) [Fenbuconazole]	15.5	–
CCC(C)c1ccccc1OC(=O)NC (stereo unspecified) [Fenobucarb]	15	–
N#Cc1c[nH]cc1-c1cccc2c1OC(F)(F)O2 [Fludioxonil]	14.4	–
O=S(=O)(O)c1ccccc1C=Cc1ccc(-c2ccc(C=Cc3ccccc3S(=O)(=O)O)cc2)cc1 [Fluorescent brightener 351]	13.5	–
COC(=O)c1ccc(C(F)(F)F)nc1S(=O)(=O)NC(=O)Nc1nc(OC)cc(OC)n1 [Flupyrsulfuron-methyl]	10.4	–
CC1COCc2cc3c(cc21)C(C)(C)C(C)C3(C)C (stereo unspecified) [Galaxolide]	18.2	–
Nc1ccn(C2OC(CO)C(O)C2(F)F)c(=O)n1 (stereo unspecified) [Gemcitabine]	3.38	–
CC1C(c2ccc(Cl)cc2)SC(=O)N1C(=O)NC1CCCCC1 (stereo unspecified) [Hexythiazox]	17.6	–
COc1ccc2c3c1OC1C(=O)CCC4C(C2)N(C)CCC314 (stereo unspecified) [Hydrocodone]	12.1	–
NC1=NCCN1Cc1ccc(Cl)nc1 [Imidacloprid-guanidine]	6.72	–
NCCc1ccc(O)cc1 [tyramine]	–	2.5
